Biological target: T1, HGFR (His6-HGFR cytoplasmic domain) (Homo sapiens, UniProt P08581)
T1 construct: made in house; host or cells: Spodoptera frugiperda Sf9 insect cells (baculovirus, pFastBac-HT)
Experiment: Inhibitory activity against HGFR tyrosine kinase activity (HTRF)
Type: biochemical
Details: biotin-poly(GT), ATP, 30° C. 10 min, read-out: IC50 (concentration necessary to inhibit HGFR kinase activity by 50%)
Outline: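 Baculovirus/Sf9-expressed N-terminal His6-tagged HGFR cytoplasmic domain (from Lys974), Ni-NTA purified, phosphorylated biotin-poly(GT) in Hepes pH 7.4 with MgCl2/MnCl2. ATP added as 4 μM solution; 10 min at 30° C., stopped with EDTA. Phosphotyrosine product detected by HTRF.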

T1 sequence (P08581 956-1390 limits assumed): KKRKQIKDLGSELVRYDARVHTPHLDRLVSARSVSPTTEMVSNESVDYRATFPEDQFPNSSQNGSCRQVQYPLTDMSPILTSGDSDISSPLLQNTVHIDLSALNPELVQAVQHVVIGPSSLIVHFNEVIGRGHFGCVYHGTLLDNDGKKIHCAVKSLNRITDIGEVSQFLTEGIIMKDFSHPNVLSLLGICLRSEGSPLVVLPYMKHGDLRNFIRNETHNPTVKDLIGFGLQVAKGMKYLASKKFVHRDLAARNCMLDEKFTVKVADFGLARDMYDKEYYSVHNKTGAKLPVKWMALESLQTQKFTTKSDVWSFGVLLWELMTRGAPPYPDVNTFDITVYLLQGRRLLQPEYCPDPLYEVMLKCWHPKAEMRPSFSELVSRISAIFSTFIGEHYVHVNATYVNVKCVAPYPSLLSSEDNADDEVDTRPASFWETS

Row | Compound | IC50
1 | CN1CC(N2CCN(C(=O)Nc3cc(Oc4ccc(NC(=S)NC(=O)Cc5ccccc5)cc4F)ccn3)CC2)C1 [Example 381] | 83 nM
2 | CN1CC(N2CCN(C(=O)Nc3cc(Oc4ccc(NC(=O)NC(=O)Cc5ccc(F)cc5)cc4F)ccn3)CC2)C1 [Example 383, 4-(1-Methylazetidin-3-yl)piperazine-1-carboxylic acid [4-(2-fluoro-4-{3-[2-(4-fluorophenyl)acetyl]ureido}phenoxy)pyridin-2-yl]amide] | 94 nM
3 | O=C(Cc1ccccc1)NC(=O)Nc1ccc(Oc2ccnc(NC(=O)N3CCN(CCN4CCC4)CC3)c2)c(F)c1 [Example 387, 4-[2-(Azetidin-1-yl)ethyl]piperazine-1-carboxylic acid {4-[2-fluoro-4-(3-phenylacetylureido)phenoxy]pyridin-2-yl}amide] | 120 nM
4 | O=C(Cc1ccc(F)cc1)NC(=O)Nc1ccc(Oc2ccnc(NC(=O)N3CCN(CCN4CCC4)CC3)c2)cc1 [Example 389, 4-[2-(Azetidin-1-yl)ethyl]piperazine-1-carboxylic acid [4-(4-{3-[2-(4-fluorophenyl)acetyl]ureido}phenoxy)pyridin-2-yl]amide] | 130 nM
5 | O=C(Cc1ccc(F)cc1)NC(=O)Nc1ccc(Oc2ccnc(NC(=O)N3CCC(CN4CCCC4)CC3)c2)cc1 [Example 390, 4-(Pyrrolidin-1-ylmethyl)piperidine-1-carboxylic acid [4-(4-{3-[2-(4-fluorophenyl)acetyl]ureido}phenoxy)pyridin-2-yl]amide] | 120 nM
6 | CN1CC(N2CCC(N(C)C(=O)Nc3cc(Oc4ccc(NC(=S)NC(=O)Cc5ccc(F)cc5)cc4F)ncn3)CC2)C1 [Example 391, 3-(6-{2-Fluoro-4-[3-(4-fluorophenyl)acetylthioureido]phenoxy}pyrimidin-4-yl)-1-methyl-1-[1-(1-methylazetidin-3-yl)piperidin-4-yl]urea] | 83 nM
7 | O=C(Cc1ccc(F)cc1)NC(=S)Nc1ccc(Oc2cc(NC(=O)N3CCC(CN4CCC4)CC3)ncn2)c(F)c1 [Example 392, 4-(Azetidin-1-ylmethyl)piperidine-1-carboxylic acid [6-(2-fluoro-4-{3-[2-(4-fluorophenyl)acetyl]thioureido}phenoxy)pyrimidin-4-yl]amide] | 55 nM
8 | O=C(Cc1ccccc1)NC(=S)Nc1ccc(Oc2cc(NC(=O)N3CCC(CN4CCC4)CC3)ncn2)c(F)c1 [Example 393, 4-(Azetidin-1-ylmethyl)piperidine-1-carboxylic acid {6-[2-fluoro-4-(3-phenylacetylthioureido)phenoxy]pyrimidin-4-yl}amide] | 56 nM
9 | O=C(Cc1ccc(F)cc1)NC(=S)Nc1ccc(Oc2ccnc(NC(=O)N3CCC(CN4CCC4)CC3)c2)cc1 [Example 394, 4-(Azetidin-1-ylmethyl)piperidine-1-carboxylic acid [4-(4-{3-[2-(4-fluorophenyl)acetyl]thioureido}phenoxy)pyridin-2-yl]amide] | 45 nM
10 | O=C(Cc1ccccc1)NC(=S)Nc1ccc(Oc2ccnc(NC(=O)N3CCC(CN4CCC4)CC3)c2)c(F)c1 [Example 395, 4-(Azetidin-1-ylmethyl)piperidine-1-carboxylic acid {4-[2-fluoro-4-(3-phenylacetylthioureido)phenoxy]pyridin-2-yl}amide] | 47 nM
11 | O=C(Cc1ccccc1)NC(=S)Nc1ccc(Oc2ccnc(NC(=O)N3CCN(CCN4CCC4)CC3)c2)c(F)c1 [Example 397, 4-[2-(Azetidin-1-yl)ethyl]piperazine-1-carboxylic acid {4-[2-fluoro-4-(3-phenylacetylthioureido)phenoxy]pyridin-2-yl}amide] | 55 nM
12 | O=C(Cc1ccc(F)cc1)NC(=S)Nc1ccc(Oc2ccnc(NC(=O)N3CCN(CCN4CCC4)CC3)c2)cc1 [Example 398, 4-[2-(Azetidin-1-yl)ethyl]piperazine-1-carboxylic acid [4-(4-{3-[2-(4-fluorophenyl)acetyl]thioureido}phenoxy)pyridin-2-yl]amide] | 47 nM

Reference: US20070270421A1, “Novel pyridine Derivative and Pyrimidine Derivative (1)” (priority 2004, published 2007)
